Results as given in paper PMC6151589, “Identification of Optically Active Pyrimidine Derivatives as Selective 5-HT2C Modulators” (Molecules : A Journal of Synthetic Chemistry and Natural …, 2017).
pKi: −log10 of the molar value. Read-outs that look alike come from different tables or passages of the source.

Key:
5-HT2A = molecular target: T1, 5-HT2A (Homo sapiens, UniProt P28223); experiment: biochemical; design: species or system HEK293 or CHO; competitive radioligand binding on crude membranes, filtration and scintillation counting
T1 construct: gene HTR2A; human recombinant receptor; crude membrane fractions of transfected HEK293 or CHO cells
T1 sequence (P28223 whole entry): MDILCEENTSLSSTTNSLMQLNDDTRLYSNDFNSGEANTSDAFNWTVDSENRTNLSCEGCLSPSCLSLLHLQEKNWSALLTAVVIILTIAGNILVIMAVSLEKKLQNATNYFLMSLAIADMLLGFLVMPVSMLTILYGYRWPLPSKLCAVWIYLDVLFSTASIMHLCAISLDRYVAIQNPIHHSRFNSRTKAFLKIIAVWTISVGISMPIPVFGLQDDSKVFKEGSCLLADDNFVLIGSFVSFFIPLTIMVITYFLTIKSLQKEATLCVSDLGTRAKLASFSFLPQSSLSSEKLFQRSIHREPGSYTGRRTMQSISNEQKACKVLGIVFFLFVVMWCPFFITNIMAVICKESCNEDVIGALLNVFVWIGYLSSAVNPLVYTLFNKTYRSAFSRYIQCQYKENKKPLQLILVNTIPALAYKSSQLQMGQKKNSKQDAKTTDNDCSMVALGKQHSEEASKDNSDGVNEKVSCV
Procedure: (§1) Eleven dilutions (5 × assay concentration) of the test and reference compounds (Table S1) were prepared in standard binding buffer (50 mM tris(hydroxymethyl)-aminomethane-HCl (Tris-HCl), 10 mM MgCl2, 1 mM ethylenediaminetetraacetate (EDTA), pH 7.4) by serial dilution: 0.05 nM, 0.5 nM, 1.5 nM, 5 nM, 15 nM, 50 nM, 150 nM, 500 nM, 1.5 μM, 5 μM, and 50 μM. The radioligand (Table S3) was diluted to five times the assay concentration in standard binding buffer. Aliquots ([…]) of the radioligand were dispensed into the wells of a 96-well plate containing […] of standard binding buffer. Triplicate aliquots ([…]) of the test and reference compound dilutions were then added. Finally, crude membrane fractions ([…]) of cells (HEK293 or CHO) expressing human recombinant receptors were dispensed into each well. A total of […] of the reaction mixtures was incubated at room temperature and shielded from light for 1.5 h, and was then harvested by rapid filtration onto Whatman GF/B glass fiber filters presoaked with 0.3% polyethyleneimine, by using a 96-well Brandel harvester (Gaithersburg, MD, USA). Four rapid washes were performed with chilled standard binding buffer (500 mL) to decrease nonspecific binding. Filters were placed in 6 mL scintillation tubes and allowed to dry overnight. The next day, 4-mL of EcoScint scintillation cocktail (National Diagnostics) was added to each tube. The tubes were capped, labeled, and counted by liquid scintillation counting. The filter mats were dried, and the scintillant was melted onto the filters, then the radioactivity retained on the filters was counted in a Microbeta scintillation counter. The IC50 values were obtained by using the Prism 4.0 program (GraphPad Software, La Jolla, CA, USA) and were converted into Ki values. Each compound was tested at least in triplicate. With each enantiomer (R)- or (S)-5d and 5e in hand, the optically active pyrimidine derivatives 4d–4e were synthesized following the same reaction sequences (Scheme 3). Finally, compounds 4d and 4e were assessed for their binding affinity to 5-HT2 receptor subtypes by radioligand binding assays. […] A further evaluation of these compounds for other 5-HT receptor subtypes was also performed and is provided in the supplementary data (Table S2). […] Considering the potencies and selectivities of 4, we can conclude that (R,R)-4e would be a viable candidate for a selective 5-HT2C modulator.

5-HT7 = molecular target: T2, 5-HT7 (Homo sapiens, UniProt P34969); experiment: biochemical; design: species or system HEK293 or CHO; competitive radioligand binding on crude membranes, filtration and scintillation counting; details: for Ki: read-out: Ki (nM), 7
T2 construct: gene HTR7; human recombinant receptor, crude membranes of HEK293 or CHO cells
T2 sequence (P34969 whole entry): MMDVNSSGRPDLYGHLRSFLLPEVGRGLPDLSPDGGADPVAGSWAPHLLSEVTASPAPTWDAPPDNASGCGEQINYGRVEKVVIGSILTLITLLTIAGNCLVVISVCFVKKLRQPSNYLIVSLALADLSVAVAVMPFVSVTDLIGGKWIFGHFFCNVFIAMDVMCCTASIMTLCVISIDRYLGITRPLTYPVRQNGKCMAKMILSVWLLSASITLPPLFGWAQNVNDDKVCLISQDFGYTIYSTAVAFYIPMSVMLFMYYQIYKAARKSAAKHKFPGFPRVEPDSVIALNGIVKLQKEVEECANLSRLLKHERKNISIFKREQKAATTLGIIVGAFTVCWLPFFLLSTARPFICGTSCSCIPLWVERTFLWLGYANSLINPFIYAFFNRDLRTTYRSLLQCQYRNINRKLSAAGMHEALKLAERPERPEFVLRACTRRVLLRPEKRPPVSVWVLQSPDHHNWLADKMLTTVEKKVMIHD
Procedure: as §1, with “[…]” for “liquid”

5-HT2C = molecular target: T3, 5-HT2C (Homo sapiens, UniProt P28335); experiment: biochemical; design: species or system HEK293 or CHO; competitive radioligand binding on crude membranes, filtration and scintillation counting
T3 construct: gene HTR2C; human recombinant receptor; crude membrane fractions of transfected cells (CHO-K1; HEK293 or CHO)
T3 sequence (P28335 33-458): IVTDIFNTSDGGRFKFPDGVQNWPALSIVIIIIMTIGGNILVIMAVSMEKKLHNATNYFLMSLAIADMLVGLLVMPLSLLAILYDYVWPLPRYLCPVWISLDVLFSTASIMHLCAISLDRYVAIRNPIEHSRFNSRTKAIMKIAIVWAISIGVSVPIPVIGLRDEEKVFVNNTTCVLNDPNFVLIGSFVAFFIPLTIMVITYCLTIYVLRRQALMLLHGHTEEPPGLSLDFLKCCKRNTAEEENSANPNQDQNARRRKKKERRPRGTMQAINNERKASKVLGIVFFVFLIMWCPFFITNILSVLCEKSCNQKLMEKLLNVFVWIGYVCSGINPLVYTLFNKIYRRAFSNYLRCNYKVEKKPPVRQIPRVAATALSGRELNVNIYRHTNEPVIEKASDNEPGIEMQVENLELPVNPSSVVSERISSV
Procedure: as §1, with “[…]” for “liquid”

5-HT2B = molecular target: T4, 5-HT2B (Homo sapiens, UniProt P41595); experiment: radioligand displacement, membranes; type: binding
T4 construct: gene HTR2B; human recombinant receptor; crude membrane fractions of transfected HEK293 or CHO cells
T4 sequence (P41595 whole entry): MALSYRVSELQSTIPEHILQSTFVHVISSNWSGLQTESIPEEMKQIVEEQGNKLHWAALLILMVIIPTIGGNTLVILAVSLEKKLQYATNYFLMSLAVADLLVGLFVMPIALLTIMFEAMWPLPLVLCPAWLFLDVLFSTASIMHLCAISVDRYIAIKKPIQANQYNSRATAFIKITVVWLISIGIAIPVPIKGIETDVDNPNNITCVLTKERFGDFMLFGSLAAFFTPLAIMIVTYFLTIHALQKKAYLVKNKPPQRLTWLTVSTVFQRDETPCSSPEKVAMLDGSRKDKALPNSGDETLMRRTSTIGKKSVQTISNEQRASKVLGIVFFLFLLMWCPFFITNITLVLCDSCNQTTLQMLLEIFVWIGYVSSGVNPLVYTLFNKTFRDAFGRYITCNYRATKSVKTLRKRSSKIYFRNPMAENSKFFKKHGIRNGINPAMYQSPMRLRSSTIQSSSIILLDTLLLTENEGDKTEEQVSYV
Source text: radioligand displacement, membranes on 5-HT2B

| SMILES | inhibition at 10 µM (5-HT2A) [%] | inhibition at 10 µM (5-HT7) [%] | Ki (5-HT7) [nM] | inhibition at 10 µM (5-HT2C) [%] | pKi (5-HT2B) | pKi (5-HT2B; pH […] MgCl2, room temperature, reference compound, may stem from the authors' earlier study (ref […])) |
| --- | --- | --- | --- | --- | --- | --- |
| C[C@@H]1CNCCN1c1ncc(F)c(O[C@H](C)c2cccc(F)c2)n1 [(R,R)-4d, 5-Fluoro-4-((R)-1-(3-fluorophenyl)ethoxy)-2-((R)-2-methylpiperazin-1-yl)pyrimidine] | 93.3 | 84.4 | 444 | 98.5 | 8.59 |  |
| C[C@@H]1CNCCN1c1ncc(F)c(O[C@H](C)c2ccc(F)cc2)n1 [(R,R)-4e, 5-Fluoro-4-((R)-1-(4-fluorophenyl)ethoxy)-2-((R)-2-methylpiperazin-1-yl)pyrimidine] |  | 87.6 | 236 | 94.2 | 7.72 |  |
| C[C@H](Oc1nc(N2CCNC[C@H]2C)ncc1F)c1cccc(F)c1 [(S,R)-4d, 5-Fluoro-4-((S)-1-(3-fluorophenyl)ethoxy)-2-((R)-2-methylpiperazin-1-yl)pyrimidine] | 82.4 | 56.9 | 766 | 97.7 | 7.17 |  |
| C[C@H](Oc1nc(N2CCNC[C@H]2C)ncc1F)c1ccc(F)cc1 [(S,R)-4e, 5-Fluoro-4-((S)-1-(4-fluorophenyl)ethoxy)-2-((R)-2-methylpiperazin-1-yl)pyrimidine] | 64.8 | 64.8 | 946 | 97.8 | 6.89 |  |
| C[C@H](Cc1cccc(F)c1)Oc1nc(N2CCNC[C@H]2C)ncc1F [compound 3, pyrimidine analogue 3] | 95.6 | 94.7 | 84 | 98.2 |  | 8.10 |
